# Results reported in patent publication US9820487B2, “Abscinazole” (NATIONAL UNIVERSITY CORPORATION SHIZUOKA UNIVERSITY, priority 2014, dated 2017).
# How the values were obtained:
# [1] = system: thale cress (Arabidopsis thaliaria, Col-0); experiment: Thale cress growth test (survival after dry treatment); type: in vivo
# Experimental: Five plant bodies of 2-week old thale cress (Arabidopsis thaliaria, Col-0) grown in Gelzan medium (containing MS medium mixed salts and 1% sucrose) were transplanted to a 200 mL-plastic pot containing a culture soil obtained by mixing vermiculite and premix in 1:1 and grown at 22° C. for 2 weeks under the condition of 16 hour light period—8 hour dark period. At this stage, the moisture content was adjusted so that the mass of the pot containing the plant and the culture soil was to be about 150 g. 50 ml, of a 50 μM aqueous solution of the (−) form of Example 1 (containing 0.05% Tween-20 and 0.2% MeOH) was sprayed to the above-ground part on 27 pots (135 seedlings of thale cress in total) once a day for 3 days. The pots on which above-ground part were sprayed with 50 mL of an aqueous solution free from the above compound (containing 0.05% Tween-20 and 0.2% MeOH) once a day for 3 days were used as controls. The pots were dry-treated for 12 days and subsequently watered, and the number of plant bodies survived 3 days later was counted, from which the survival rate was calculated in accordance with the following formula (5).
# Survival rate (%)=Number of plant bodies survived (piece)/Total number of plant bodies (piece)×100 . . .(5)
# [2] = target: T1, abscisic acid 8′-hydroxylase CYP707A3 (Arabidopsis thaliana, UniProt Q9FH76); experiment: Abscisic acid 8′-hydroxylase CYP707A3 inhibition test; type: biochemical; conditions: CYP707A3 + NADPH-P450 reductase ATR1, substrate ABA, 30° C. 10 minutes; IC50 calculated from two concentrations
# T1 sequence (Q9FH76 1-463): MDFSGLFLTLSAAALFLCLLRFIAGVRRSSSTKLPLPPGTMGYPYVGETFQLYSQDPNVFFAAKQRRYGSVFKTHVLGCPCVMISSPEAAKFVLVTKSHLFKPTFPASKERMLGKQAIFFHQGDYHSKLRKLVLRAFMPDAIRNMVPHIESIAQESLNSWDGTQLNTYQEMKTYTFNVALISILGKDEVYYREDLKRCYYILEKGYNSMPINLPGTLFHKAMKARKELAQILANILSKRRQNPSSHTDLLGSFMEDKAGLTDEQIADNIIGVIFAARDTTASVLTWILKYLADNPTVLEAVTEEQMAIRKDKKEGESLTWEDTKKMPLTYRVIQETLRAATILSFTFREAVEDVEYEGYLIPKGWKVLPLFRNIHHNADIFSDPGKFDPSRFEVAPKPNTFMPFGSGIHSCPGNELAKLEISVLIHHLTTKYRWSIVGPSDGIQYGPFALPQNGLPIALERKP
# Experimental: In a 1.5 mL microtube, 10 μL of a solution of substrate 250 μM ABA in potassium/phosphate buffer (KPB), 5 μL of a solution of the sample in dimethylformamide, 435 μL of KPB and 40 μL of abscisic acid 8′-hydroxylase CYP707A3+NADPH-P450 reductase ATR1 were put and heated at 30° C. for 10 minutes. 10 μL of a solution of 5 mg/mL NADPH in KPB was added thereto thereby starting the enzyme reaction. The reaction was carried out at 30° C. for 10 minutes at a rotation speed of 1000 rpm, and 25 μL of an aqueous solution of 1 M sodium hydroxide was added thereto thereby terminating the reaction. The reaction solution was allowed to stand at 4° C. for 30 minutes and subsequently 50 μL of 1 M hydrochloric acid was added thereto to convert the enzyme metabolite to phaseic acid (PA). The enzyme reaction solution was subjected to an OASIS HLB cartridge (1 cc, 30 mg; washed with 1 mL of methanol (1% acetic acid) and equilibrated with 1 mL of water (1% acetic acid)) and washed with 1 mL of 10% methanol/water (1% acetic acid) thereby eluting phaseic acid with 1 mL of methanol (1% acetic acid). The eluate was concentrated under reduced pressure (toluene was added to azeotrope acetic acid), the obtained substance was dissolved in 50 μL of methanol. 20 μL of the solution was subjected to HPLC (column, YMC-Pack Hydrosphere C18 (6 mm inner diameter×150 mm length); flow rate 1 mL/min; detection 254 nm) analysis. The CYP707A3 inhibition rate of the samples was calculated in accordance with the following formula (3). Note that dimethylformamide was used for the control in place of the sample solution. Each sample was tested with two different concentrations to calculate the 50% inhibition concentration (IC50) based on the enzyme inhibition rates thereof The results are shown in Table 1.
# Enzyme inhibition rate (%)={1-(PA peak area of each sample/PA peak area of control)}×100 . . . (3)
smiles,measurement,setting,value
"COCCOCCOCCOCC#Cc1cccc(/C=C(\[C@@H](O)C(C)(C)C)n2cncn2)c1 [Example 1 (−) Form, (−)-(S)-(E)-1-(3-(2,5,8,11-tetraoxatetradec-13-yn-14-yl)phenyl)-4,4-dimethyl-2-(1H-1,2,4-triazol-1-yl)pent-1-en-3-ol]",survival rate after dry treatment,"[1]; 50 μM aqueous solution sprayed once a day for 3 days, dry-treated 12 days, watered, counted 3 days later, control 15%",75%
same,withering due to dryness,"[1]; sprayed to thale cress, 50 μM, dry treatment 12 days",reduced
same,potency estimated from few doses,[2],0.064 µM
